Literature values in US9226944B2, “Herbal preparation for sleep apnea relief” (priority 2008, dated 2016).

Settings: combined with the plant vs freed from the other constituents; heat accelerates decomposition

For `CN1C(CC(=O)c2ccccc2)CCCC1CC(O)c1ccccc1` (stereo not shown) [Lobeline, 2-[6-(2-hydroxy-2-phenyl-ethyl)-1-methyl-2-piperidyl]-1-phenyl-ethanone], the stability of lobeline is given as “decomposes when freed from contact with the other constituents of the plant”.
